The text below walks through data of PubChem BioAssay (NCI).

Test systems include ACHN renal; SF-268 CNS; SK-MEL-2 melanoma; SK-OV-3 ovarian; SN12C renal; UACC-257 melanoma; 786-0 renal; HOP-92 NSCLC; MCF7 breast; SK-MEL-28 melanoma.
What all share (assay): NCI anticancer screen, dose series, 48 h

In brackets after ≈: the same amount, converted by molar mass. Several values for one entry are separate records, joined by “and”; a condition that tells them apart may be missing. Equal entries are not always repeated.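 Tested at 5 concentrations; 48 h exposure; 96-well plates; endpoints linearly interpolated, else capped at highest concentration. GI50 is the concentration that inhibits growth by half. The concentration for full growth arrest is given as TGI.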

For the compound `CCOC(=O)C1CCn2c(nc3c2c(=O)n(C)c(=O)n3C)S1` (configuration not stated), the TGI in the test with ACHN renal, in the test with SF-268 CNS, in the test on SK-MEL-2 melanoma, in the test on SK-OV-3 ovarian, with SN12C renal and in the test with UACC-257 melanoma was more than 100 µM each time.

As for `COC(=O)C1C(O)CCC2CN3CCc4c([nH]c5cccc(OC)c45)C3CC21` (configuration not stated), the TGI in the test on 786-0 renal, in the test on ACHN renal, with HOP-92 NSCLC, in the test on MCF7 breast, in the test with SF-268 CNS and in the test on SK-MEL-2 melanoma was more than 100 µM in each case. The TGI in the test with SK-MEL-28 melanoma, in the test on SK-OV-3 ovarian, in the test with SN12C renal and with UACC-257 melanoma was more than 100 µM throughout.

Consider `O=C(CCN1CC2CCC(CC2)C1)c1cccs1`, for which the TGI came out at 20.9 µM in the test on 786-0 renal; 33.6 µM in the test on ACHN renal; 12.6 µM in the test with HOP-92 NSCLC; 29.4 µM with MCF7 breast; 44.3 µM with SF-268 CNS; 33.6 µM in the test on SK-MEL-2 melanoma. For the same compound, the TGI is 32.5 µM in the test on SK-MEL-28 melanoma, more than 53.4 µM in the test on SK-OV-3 ovarian, 37.6 µM in the test with SN12C renal and 30.4 µM in the test with UACC-257 melanoma.

With `N#CC(c1ccccc1)N1CCCN(C(C#N)c2ccccc2)C1c1ccccc1O` (configuration not stated), the TGI in the test with 786-0 renal, with ACHN renal, with HOP-92 NSCLC, in the test with MCF7 breast, with SF-268 CNS and with SK-MEL-2 melanoma was more than 100 µM throughout. For the same compound, the TGI with SK-MEL-28 melanoma, with SK-OV-3 ovarian, in the test with SN12C renal and in the test on UACC-257 melanoma was more than 100 µM in each case.

In the case of `CC1(C)CC(=O)C2=C(C1)NC(SSC1=C(C#N)C(c3ccc(F)cc3)C3=C(CC(C)(C)CC3=O)N1)=C(C#N)C2c1ccc(F)cc1` (configuration not stated), the GI50 in the test on ACHN renal was 28.7 µg/mL (≈ 43.8 µM); with MCF7 breast it was 32.3 µg/mL (≈ 49.3 µM); with SF-268 CNS it was 29.3 µg/mL (≈ 44.8 µM); in the test on SK-MEL-28 melanoma it was 25.8 µg/mL; with SK-OV-3 ovarian it was 15 µg/mL (≈ 22.9 µM); with SN12C renal it was 27.9 µg/mL (≈ 42.6 µM). Also, the GI50 in the test on UACC-257 melanoma is 30.2 µg/mL (≈ 46.2 µM). The TGI came to 53.7 µg/mL in the test with ACHN renal; 72.3 µg/mL in the test with MCF7 breast; 58.4 µg/mL in the test on SF-268 CNS; 46.4 µg/mL in the test with SK-MEL-28 melanoma; 15 µg/mL in the test with SK-OV-3 ovarian; 52.1 µg/mL in the test with SN12C renal. Besides, the TGI with UACC-257 melanoma stood at 51.6 µg/mL.

`C[C@]12CCC(=O)C=C1CC[C@@H]1[C@@H]2[C@@H](O)C[C@@]2(C)[C@H]1CC[C@]2(O)C(=O)CO`: the TGI with 786-0 renal, with ACHN renal, in the test with HOP-92 NSCLC, with MCF7 breast, with SF-268 CNS and in the test on SK-MEL-2 melanoma was more than 100 µM in each case. In addition, the TGI in the test on SK-MEL-28 melanoma, with SK-OV-3 ovarian, with SN12C renal and in the test on UACC-257 melanoma was more than 100 µM each time.

Take `CC(=O)N(C)c1ccc2c(ccc[n+]2[O-])c1[N+](=O)[O-]`: the TGI in the test on 786-0 renal, in the test on ACHN renal, in the test on SF-268 CNS, in the test with SK-MEL-2 melanoma, in the test on SK-MEL-28 melanoma and in the test with SN12C renal was more than 100 µM in each case. Also, the TGI in the test on UACC-257 melanoma was more than 100 µM.

Regarding `Nc1nc(N)c2c(n1)NC(c1ccccc1)CC(/C=C/c1ccc(Cl)cc1)=N2` (configuration not stated), the TGI was 12 µM with 786-0 renal; 25.5 µM in the test on ACHN renal; 18.2 µM in the test with HOP-92 NSCLC; 16 µM with MCF7 breast; 44.1 µM in the test with SF-268 CNS; 42.7 µM in the test on SK-MEL-2 melanoma. Besides, the TGI with SK-MEL-28 melanoma came out at 28.1 µM; in the test with SK-OV-3 ovarian, 29.4 µM; in the test on SN12C renal, 23.6 µM; in the test on UACC-257 melanoma, 7.78 µM.

For `O=[n+]1c2c(n([O-])c3ccccc31)-c1cccc3cccc-2c13`, the TGI in the test on ACHN renal, in the test on HOP-92 NSCLC, in the test on MCF7 breast, in the test on SF-268 CNS, in the test with SN12C renal and in the test on UACC-257 melanoma was more than 100 µM throughout.

Turning to `CC1(C)CCC2(C(=O)OC3OC(CO)C(O)C(O)C3O)CCC3(C)C(=CCC4C5(C)CCC(OC6OC(CO)C(O)C(O)C6O)C(C)(C)C5CCC43C)C2C1` (configuration not stated), the TGI with 786-0 renal was more than 25 µM; in the test on ACHN renal, more than 25 µM; in the test with HOP-92 NSCLC, more than 25 µM; in the test on MCF7 breast it was more than 25 µM; in the test on SF-268 CNS, 21.8 µM; with SK-MEL-2 melanoma, 14.8 µM. The TGI with SK-MEL-28 melanoma, with SK-OV-3 ovarian, in the test with SN12C renal and in the test on UACC-257 melanoma was more than 25 µM throughout.

As for `COc1ccc(/C=C(\C#N)c2nc(N)nc(N3N=C(C)CC3(C)C)n2)c(O)c1`, the TGI worked out at 30 µM in the test with 786-0 renal; 31 µM in the test with ACHN renal; 58.5 µM in the test with HOP-92 NSCLC; 45.5 µM in the test on MCF7 breast; 38.3 µM in the test on SF-268 CNS; 38.9 µM with SK-MEL-2 melanoma. Besides, the TGI in the test with SK-MEL-28 melanoma was 29.6 µM; in the test with SK-OV-3 ovarian, 65.1 µM; in the test with SN12C renal it was more than 100 µM; in the test with UACC-257 melanoma, 59.1 µM.

In the case of `[O-][N+](CCO)(CCO)c1ncnc2nc[nH]c12`, the TGI with 786-0 renal, with ACHN renal, in the test on MCF7 breast, with SF-268 CNS, in the test on SK-MEL-2 melanoma and in the test on SK-MEL-28 melanoma was more than 100 µM throughout. Further, the TGI in the test with SK-OV-3 ovarian, in the test on SN12C renal and with UACC-257 melanoma was more than 100 µM in each case.

`COC(=O)C1C(C)N1C` (configuration not stated): the TGI with HOP-92 NSCLC, in the test on SK-MEL-28 melanoma, in the test on SK-OV-3 ovarian, in the test with SN12C renal and in the test with UACC-257 melanoma was more than 100 µM each time.

As for `O=S1(=O)OC(c2ccc(O)cc2)(c2ccc(O)cc2)c2ccccc21`, the TGI in the test on 786-0 renal, in the test on ACHN renal, in the test on HOP-92 NSCLC, in the test on MCF7 breast, in the test on SF-268 CNS and in the test on SK-MEL-2 melanoma was more than 100 µM throughout. Further, the TGI with SK-MEL-28 melanoma, in the test on SK-OV-3 ovarian, with SN12C renal and with UACC-257 melanoma was more than 100 µM each time.

`CC(Sc1ccccc1)C(CO)(CO)[N+](=O)[O-]` (configuration not stated): the TGI with ACHN renal came out at 30.6 µM; in the test on SF-268 CNS, 46.5 µM; in the test with SK-MEL-2 melanoma, 54 µM; in the test on SK-OV-3 ovarian, 39.9 µM; in the test on SN12C renal, 31.2 µM; in the test with UACC-257 melanoma, 30.2 µM.

Take `C[C@]12CC[C@@H]3c4ccccc4CC[C@H]3[C@@H]1CC[C@@H]2O`: the TGI with 786-0 renal, with ACHN renal, in the test with SF-268 CNS, in the test on SK-MEL-28 melanoma, in the test on SK-OV-3 ovarian and in the test on SN12C renal was more than 100 µM each time. This compound came in with a TGI in the test on UACC-257 melanoma of more than 100 µM.

On to `CC[C@@]1(O)C(=O)OCc2c1cc1n(c2=O)Cc2c-1nc1ccc(O)cc1c2CC[Si](C)(C)C`, for which the TGI with ACHN renal is 0.363 µM; with HOP-92 NSCLC, 0.0308 µM; in the test with SK-MEL-2 melanoma, 0.576 µM and 1.17 µM; in the test with SK-MEL-28 melanoma, more than 100 µM; in the test on UACC-257 melanoma, 0.136 µM and 0.0447 µM. For the same compound, the GI50 in the test on SK-MEL-2 melanoma is 0.0742 µM; in the test on SK-MEL-28 melanoma, 0.107 µM.

In the case of `Clc1ccc(Nc2nc(Cl)c3[nH]cnc3n2)cc1Cl`, the TGI is 30.8 µM in the test with 786-0 renal; more than 100 µM with ACHN renal; 53.4 µM in the test on HOP-92 NSCLC; more than 100 µM in the test with MCF7 breast; 91.3 µM with SF-268 CNS; 59.5 µM with SK-MEL-2 melanoma. For the same compound, the TGI is more than 100 µM with SK-OV-3 ovarian, more than 100 µM with SN12C renal and 83.3 µM in the test on UACC-257 melanoma.

`Cc1cc(O)c(C(C)C)cc1CN1CCCCC1`: the TGI in the test on 786-0 renal, with ACHN renal, in the test on HOP-92 NSCLC, in the test on MCF7 breast, in the test on SF-268 CNS and in the test with SK-MEL-28 melanoma was more than 100 µM throughout. Moreover, the TGI in the test with SK-OV-3 ovarian, in the test on SN12C renal and in the test with UACC-257 melanoma was more than 100 µM in each case.

Take `CC(=O)OC1CC(O)CC2=CCC3C4CCC(C(C)(O)C(O)CC5COC(=O)C5C)C4(C)CCC3C21C` (configuration not stated): the TGI with 786-0 renal, with ACHN renal, in the test with HOP-92 NSCLC, in the test on MCF7 breast, in the test with SF-268 CNS and in the test on SK-MEL-2 melanoma was more than 25 µM throughout. Also, the TGI in the test on SK-MEL-28 melanoma, with SK-OV-3 ovarian, with SN12C renal and in the test with UACC-257 melanoma was more than 25 µM in each case.

As to `C/C(=N\NC(=O)c1cccnc1)c1cccc(/C(C)=N/NC(=O)c2cccnc2)n1`, the TGI is 12.2 µM with ACHN renal; 59.1 µM in the test on HOP-92 NSCLC; 30.6 µM in the test on SF-268 CNS; 7.02 µM in the test with SK-MEL-2 melanoma; more than 100 µM with SK-MEL-28 melanoma; 82.4 µM in the test on SK-OV-3 ovarian. For the same compound, the TGI in the test with SN12C renal was more than 100 µM; in the test on UACC-257 melanoma, 35.4 µM. In addition, the GI50 in the test on HOP-92 NSCLC is 7.41 µM; in the test with SK-MEL-2 melanoma, 2.33 µM; in the test on SK-MEL-28 melanoma, 9.56 µM.

Consider `Nc1ccc2c(c1)C(=O)N(O)C2=O`, for which the TGI with ACHN renal, in the test with SF-268 CNS, with SK-MEL-28 melanoma, in the test with SK-OV-3 ovarian, with SN12C renal and in the test on UACC-257 melanoma was more than 100 µM throughout.
